Where two headings read alike, the source gives them in different places.
Assays:
[1] = system: Polaromonas sp.-derived PobA (PoPobA), protocatechuic acid 5-hydroxylase, wild type, SEQ ID NO: 22; test: Reaction kinetic analysis of PoPobA; type: biochemical; conditions: 200 µM NADPH, 10 µM FAD, pH 7.9, 25° C., 340 nm
Text: By the same procedures, a target pRSF-PoPobA plasmid was obtained based on the gene sequence information of Polaromonas sp.-derived PobA (PoPobA) (SEQ ID NO: 7). The base sequences of primers 5 and 6 used are shown below.

[2] = system: Hydrogenophaga sp.-derived PobA (HyPobA), protocatechuic acid 5-hydroxylase, wild type, SEQ ID NO: 21; test: Reaction kinetic analysis of HyPobA; type: biochemical; conditions: 200 µM NADPH, 10 µM FAD, pH 7.9, 25° C., 340 nm
Text: By the same procedures, a target […] plasmid was obtained based on the gene sequence information of Hydrogenophaga sp.-derived PobA (HyPobA) (SEQ ID NO: 4). The base sequences of primers 3 and 4 used are shown below.

[3] = molecular target: Pseudomonas aeruginosa-derived PobA (PaPobA), p-hydroxybenzoate hydroxylase, wild type, SEQ ID NO: 28 (Pseudomonas aeruginosa, UniProt P20586); test: Reaction kinetic analysis of PaPobA (comparison); conditions: PCA substrate (2 mM), 200 µM NADPH, 10 µM FAD, pH 7.9, 25° C., 340 nm
Text: A polynucleotide encoding Pseudomonas aeruginosa-derived PobA was artificially synthesized based on the gene sequence information of Pseudomonas aeruginosa-derived PobA (PaPobA) (SEQ ID NO: 14).

[4] = molecular target: Hylemonella gracilis-derived PobA (HgPobA, SEQ ID NO: 20) variant HgPobA-TY, T302A/Y393F (gene SEQ ID NO: 37) (Hylemonella gracilis, UniProt F3KT36, T302A/Y393F); test: Reaction kinetic analysis of HgPobA-TY
Procedure: The cell-free extracts were subjected to a HisTrap HP column (GE healthcare) which was equilibrated with an equilibration buffer (20 mM Tris-HCl buffer (pH 7.9), 20 mM imidazole), and then fractions eluted with an eluent (20 mM Tris-HCl buffer (pH 7.9), 500 mM imidazole) were collected.
The protein concentrations of the purified enzyme liquids were measured using Bio-Rad Protein Assay Dye Reagent Concentrate (Bio-Rad, USA), and the purified enzyme liquids were diluted to 1 of mg/mL with a buffer.

[5] = PCA substrate, read-out: Km^app (PCA)
[6] = read-out: Km^app (pHBA), pHBA substrate

Chain of Hylemonella gracilis-derived PobA (HgPobA, SEQ ID NO: 20) variant HgPobA-TY, T302A/Y393F (gene SEQ ID NO: 37) (F3KT36 1-402 T302A/Y393F): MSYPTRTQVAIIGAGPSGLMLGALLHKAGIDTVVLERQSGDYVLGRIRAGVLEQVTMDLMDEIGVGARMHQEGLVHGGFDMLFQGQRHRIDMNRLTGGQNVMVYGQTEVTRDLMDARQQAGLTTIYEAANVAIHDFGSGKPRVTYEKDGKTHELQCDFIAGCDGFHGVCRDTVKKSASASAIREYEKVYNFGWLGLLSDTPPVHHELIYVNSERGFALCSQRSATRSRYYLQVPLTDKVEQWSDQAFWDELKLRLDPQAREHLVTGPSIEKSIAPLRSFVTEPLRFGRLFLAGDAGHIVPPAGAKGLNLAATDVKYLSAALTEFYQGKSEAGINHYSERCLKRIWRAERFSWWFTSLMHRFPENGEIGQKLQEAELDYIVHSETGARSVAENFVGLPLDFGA
Chain of Pseudomonas aeruginosa-derived PobA (PaPobA), p-hydroxybenzoate hydroxylase, wild type, SEQ ID NO: 28 (P20586 whole entry): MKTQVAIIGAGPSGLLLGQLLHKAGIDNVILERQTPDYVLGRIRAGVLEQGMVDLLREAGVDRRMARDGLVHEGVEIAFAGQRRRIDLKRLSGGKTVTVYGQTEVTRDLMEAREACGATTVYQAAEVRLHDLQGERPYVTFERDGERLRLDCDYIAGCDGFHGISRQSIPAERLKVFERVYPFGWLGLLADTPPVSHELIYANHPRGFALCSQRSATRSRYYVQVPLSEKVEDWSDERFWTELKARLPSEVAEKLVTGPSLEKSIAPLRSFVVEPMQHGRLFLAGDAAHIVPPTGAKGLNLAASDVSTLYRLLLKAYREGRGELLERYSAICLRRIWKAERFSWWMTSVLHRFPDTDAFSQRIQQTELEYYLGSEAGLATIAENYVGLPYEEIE

| Km [1, 6] [µM] | Km [2, 6] [µM] | Structure (SMILES) | kcat^app (PCA) ([1]; PCA substrate (2 mM)) [s⁻¹] | Km [1, 5] [µM] | kcat^app (PCA) ([2]; PCA substrate (2 mM)) [s⁻¹] | Km [2, 5] [µM] | kcat^app (PCA) [3] [s⁻¹] | kcat value for PCA relative to PaPobA ([4]; HgPobA-TY versus PaPobA) [times] | kcat^app (PCA) ([4]; PCA substrate (2 mM), 200 µM NADPH, 10 µM FAD, pH 7.9, 25° C., 340 nm) [s⁻¹] |
| --- | --- | --- | --- | --- | --- | --- | --- | --- | --- |
|  |  | O=C(O)c1ccc(O)c(O)c1 [PCA, protocatechuic acid] | 2.7 | 920 | 6.6 | 570 | 0.50 | 3.6 | 1.8 |
| 340 | 56 | O=C(O)c1ccc(O)cc1 [pHBA, p-hydroxybenzoic acid] |  |  |  |  |  |  |  |

From patent publication US20260103686A1, “MICROBIAL STRAIN, PROTEIN, AND METHOD FOR PRODUCING GALLIC ACID USING MICROBIAL STRAIN OR PROTEIN” (UNIVERSITY OF TSUKUBA, priority 2022, published 2026)
